Measurements published in the OligoGym collection.
After the bases stand the sugars from the 5' end (letter, count) and the backbone: PS all phosphorothioate, else s phosphorothioate and o phosphodiester by linkage. Methylation of C is not given here. l = locked nucleic acid (LNA); d = 2'-deoxy (DNA)

Target: SNHG14
Conditions: ASO
[1] = Mouse Primary Neuronal Cell, 0.005 µM

| Sequence | target mRNA inhibition (Human Neuronal Cell, 0.2 µM) [%] | target mRNA inhibition (Human Neuronal Cell, 1 µM) [%] | target mRNA inhibition (Human Neuronal Cell, 7.5 µM) [%] | further results |
| --- | --- | --- | --- | --- |
| ACTCTGCAATACACCA (sugars l3 d10 l3, PS) | 52 | 56 |  |  |
| TGTCATCTACAAATCA (sugars l4 d10 l2, PS) | 50 | 46 |  |  |
| AATTATTTATACACCATCAT (sugars llldllddddddddlddlll, PS) |  |  | 64 |  |
| TTATAGCCATTCTATCT (sugars l1 d10 l1 d1 l4, PS) |  |  | 53 |  |
| TTCTGTATACACCATCC (sugars l1 d1 l2 d11 l2, PS) |  |  | 55 |  |
| CACATCTTGTATACAA (sugars l3 d10 l3, PS) | 52 | 61 |  |  |
| TGAAAATCTCAACTACCAT (sugars ldllddddddddlddldll, PS) |  |  | 44 |  |
| ACTCTTTAGATTCATC (sugars l2 d10 l4, PS) | 53 | 44 |  |  |
| AATTATTTATACACCATCAT (sugars llddldddddddddldllll, PS) |  |  | 70 |  |
| ATCTCATGACCACCTAA (sugars ldlddddddddddldll, PS) |  |  | 61 |  |
| GCAACATTATTAACCACCT (sugars ldlddlddddddlldddll, PS) |  |  | 44 |  |
| CAAAGATCATTCTCAAC (sugars l3 d8 l6, PS) |  |  | 53 |  |
| TTGATTCCACCATTAA (sugars l3 d10 l3, PS) | 49 | 28 |  |  |
| TACACTTAATTATACTTCCA (sugars ldldddlddddddddlddll, PS) |  |  | 58 |  |
| TAAAATTATTTATACACCAT (sugars lldlllldddddddllldll, PS) |  |  | 26 |  |
| TCTTTCCATTTATTTCCATT (sugars l2 d4 l1 d11 l2, PS) |  |  | 48 |  |
| ATTTATTTCCATTTATTTTC (sugars ldddlldddddddldddlll, PS) |  |  | 64 |  |
| TAAAATTATTTATACACCAT (sugars ldldllddddddddldllll, PS) |  |  | 45 |  |
| TACATCTCATACTTGCT (sugars l4 d11 l2, PS) |  |  |  | target mRNA inhibition [1]: 95.3% |
| TGAAAATCTCAACTACCAT (sugars lldlldddddddlddldll, PS) |  |  | 46 |  |
| AGCAACATTATTAACCACC (sugars l1 d15 l3, PS) |  |  | 38 |  |
| TTTATCAATATCTTCTCACT (sugars lddlddddddddddlddlll, PS) |  |  | 53 |  |
| TTTTTATACCTTTCTTTAAC (sugars ldddlldddddddlddddll, PS) |  |  | 15 |  |

| Sequence | target mRNA inhibition (Human Neuronal Cell, 0.2 µM) [%] | target mRNA inhibition (Human Neuronal Cell, 1 µM) [%] | target mRNA inhibition (Human Neuronal Cell, 7.5 µM) [%] | further results |
| --- | --- | --- | --- | --- |
| GTTAACCTATATTTCA (sugars l4 d10 l2, PS) | 15 | 6 |  |  |
| TCTGTATACACCATCC (sugars l4 d10 l2, PS) | 61 | 68 |  |  |
| TTACTCTTTGATTTCAT (sugars l3 d11 l3, PS) | 34 | 34 |  |  |
| TTTTTTCTTACTATCTTCAA (sugars ldldldldddddddldddll, PS) |  |  | 57 |  |
| TACATTATTATTTAACC (sugars l4 d11 l2, PS) | 11 | 6 |  |  |
| TATAAGCTTACCTCAT (sugars l3 d10 l3, PS) | 50 | 66 |  |  |
| TTTATCAATATCTTCTCAC (sugars lldldlddddddddldlll, PS) |  |  | 63 |  |
| TTTTTTTCTTACTATCTTCA (sugars ldlldddddddddlddldll, PS) |  |  | 59 |  |
| AAATTATTTATACACCATCA (sugars llddldldddddddddllll, PS) |  |  | 67 |  |
| ATCTTCAAGAATTCTC (sugars l3 d10 l3, PS) | 44 | 48 |  |  |
| TCTATATCAAGTTCCTT (sugars l2 d11 l4, PS) | 51 | 43 |  |  |
| TATACCTTTCTTTAACCCTT (sugars lddddldddddddddlddll, PS) |  |  | 61 |  |
| ACTCTGCAATACACCAA (sugars lldlddddddddlldll, PS) |  |  | 65 |  |
| ACTCTGCAATACACCAA (sugars l2 d1 l2 d9 l3, PS) |  |  | 55 |  |
| ATTTACACTTAATTATACTT (sugars llldlddddddddlldllll, PS) |  |  | 27 |  |
| CTGTATACACCATCCCA (sugars lddldddddddldddll, PS) |  |  | 55 |  |
| CTGTATACACCATCCCA (sugars ldddlddddddldddll, PS) |  |  | 29 |  |
| TGCTCACTAACTACAC (sugars l3 d10 l3, PS) | 22 | 9 |  |  |
| TAGACTAATCCTCTTA (sugars l4 d10 l2, PS) | 48 | 56 |  |  |
| TTTATCTCATGACCACC (sugars l2 d11 l4, PS) | 54 | 56 |  |  |
| TAGCCTACTTTAATAT (sugars l4 d10 l2, PS) | 25 | 11 |  |  |
| TTTATACCTTTCTTTAACCC (sugars l1 d14 l1 d2 l2, PS) |  |  | 53 |  |
| TTATACCTTTCTTTAACCCT (sugars ldlddlddddddddddddll, PS) |  |  | 56 |  |

| Sequence | target mRNA inhibition (Human Neuronal Cell, 0.2 µM) [%] | target mRNA inhibition (Human Neuronal Cell, 1 µM) [%] | target mRNA inhibition (Human Neuronal Cell, 7.5 µM) [%] | further results |
| --- | --- | --- | --- | --- |
| GAAAATCTCAACTACCATT (sugars l5 d12 l2, PS) |  |  | 60 |  |
| TCCATTTATTTCCATTTATT (sugars lldldldddddddddddlll, PS) |  |  | 55 |  |
| CTTTTAACCAGAGTGGCA (sugars l1 d14 l3, PS) |  |  | 61 |  |
| CAACATTATTAACCACCTT (sugars ldldddddddddddldlll, PS) |  |  | 52 |  |
| TACTCTGCAATACACCA (sugars ldddlddddddddldll, PS) |  |  | 68 |  |
| CACCTGATAACAGACCCT (sugars l3 d12 l3, PS) | 24 | 16 |  | target mRNA inhibition (Human Neuronal Cell, 5 µM): -10% |
| ACTGTTTATACCCTTTC (sugars ldlddddddddldldll, PS) |  |  | 63 |  |
| CATTTACATTATTATTTAAC (sugars l2 d14 l4, PS) | 1 | -3 |  |  |
| TTCTGTATACACCATCC (sugars l1 d2 l1 d11 l2, PS) |  |  | 56 |  |
| GTTCTACTATACTTTCCT (sugars l1 d14 l3, PS) |  |  | 46 |  |
| TCTACCCTAAATTCCC (sugars l2 d11 l3, PS) | 14 | 29 |  |  |
| TTACACTTAATTATACTTCC (sugars ldddddldddddddldldll, PS) |  |  | 61 |  |
| TTGATTCAATTCCCTTA (sugars ldlldddddddldldll, PS) |  |  | 68 |  |
| AGCTTTTAACCAGAGTGGC (sugars l1 d16 l2, PS) |  |  | 56 |  |
| TTTATGTTTACTTCAT (sugars l3 d10 l3, PS) | 33 | 47 |  |  |
| ATTTACACTTAATTATACTT (sugars ldddldldddddddllllll, PS) |  |  | 46 |  |
| ATTCAAAGCACACCACC (sugars l2 d12 l3, PS) | 25 | 32 |  |  |
| ATTGATTCAATTCCCTT (sugars ldddldddddddldlll, PS) |  |  | 62 |  |
| ATTTATTTCCATTTATTTTC (sugars ldllddddddddddlddlll, PS) |  |  | 60 |  |
| ACTGTTTATACCCTTTCC (sugars lddldlddddddddddll, PS) |  |  | 53 |  |
| TATCTTTCCATTTATTTCCA (sugars l1 d2 l1 d14 l2, PS) |  |  | 45 |  |
| AACCAATTATACTTACA (sugars l4 d11 l2, PS) | 40 | 51 |  |  |
| CCATTTATTTCCATTTATT (sugars lddlllddddddldddlll, PS) |  |  | 54 |  |

| Sequence | target mRNA inhibition (Human Neuronal Cell, 0.2 µM) [%] | target mRNA inhibition (Human Neuronal Cell, 1 µM) [%] | target mRNA inhibition (Human Neuronal Cell, 7.5 µM) [%] | further results |
| --- | --- | --- | --- | --- |
| TTATAGCCATTCTATCT (sugars l3 d9 l1 d2 l2, PS) |  |  | 52 |  |
| ACTGTTTATACCCTTTCC (sugars l1 d3 l1 d11 l2, PS) |  |  | 49 |  |
| GTTCTCTTTATTTCTTCT (sugars l2 d12 l4, PS) | 31 | 42 |  |  |
| TTATTCTGACACACTT (sugars l3 d10 l3, PS) | 35 | 35 |  |  |
| GTTTATACCCTTTCCAAT (sugars ldldldddddddllddll, PS) |  |  | 39 |  |
| TATCTTTCCATTTATTTCCA (sugars l2 d16 l2, PS) |  |  | -12 |  |
| TTATAGCCATTCTATCT (sugars l2 d13 l2, PS) |  |  | 48 |  |
| TTTATCAATATCTTCTCACT (sugars ldddddldddddddlddlll, PS) |  |  | 45 |  |
| CAACATTATTAACCACCTT (sugars ldlldddddddddddldll, PS) |  |  | 58 |  |
| TATTGATTCAATTCCCT (sugars l2 d12 l3, PS) |  |  | 59 |  |
| TTCTACTATACTTTCCTCT (sugars l1 d13 l1 d2 l2, PS) |  |  | 47 |  |
| ACATCTCATACTTGCT (sugars l2 d10 l4, PS) | -10 | -5 |  | target mRNA inhibition (Human Neuronal Cell, 5 µM): 8%; target mRNA inhibition [1]: 96% |
| TTATAGCCATTCTATCT (sugars l3 d12 l2, PS) |  |  | 59 |  |
| TTCCTTTAATGCTTCTA (sugars l4 d11 l2, PS) | 55 | 65 |  |  |
| CTGTATACACCATCCCA (sugars l1 d12 l1 d1 l2, PS) |  |  | 58 |  |
| TATACCTTTCTTTAACCCTT (sugars lddddlddddddddddldll, PS) |  |  | 61 |  |
| TATTGATTCAATTCCCT (sugars lldddddddddldldll, PS) |  |  | 60 |  |
| GCAACATTATTAACCACCT (sugars ldddddddddddlldldll, PS) |  |  | 39 |  |
| ATTTACACTTAATTATACTT (sugars llddlldddddddlllddll, PS) |  |  | 36 |  |
| TGTTTATACCCTTTCC (sugars l4 d10 l2, PS) | 58 | 56 |  |  |
| TATACCTTTCTTTAACCCT (sugars l2 d15 l2, PS) | 13 | 37 |  |  |
